Each structure is given as a SMILES string. Counter-ions that a name gives are not always drawn. Like-named read-outs stand apart in the source and are kept apart here.

These results are taken from patent US6777426B2, “Imidazole and imidazoline derivatives and uses thereof” (Synaptic Pharmaceutical Corporation, priority 1997, dated 2004).

The target of data set [1] is T1, human α2a adrenergic receptor (Homo sapiens, UniProt P08913).
T1 construct: expressed in transfected cells; host or cells: LM(tk−) cells (L-α2A, ATCC CRL-11180), vector pCEXV-3
T1 sequence (P08913 1-465): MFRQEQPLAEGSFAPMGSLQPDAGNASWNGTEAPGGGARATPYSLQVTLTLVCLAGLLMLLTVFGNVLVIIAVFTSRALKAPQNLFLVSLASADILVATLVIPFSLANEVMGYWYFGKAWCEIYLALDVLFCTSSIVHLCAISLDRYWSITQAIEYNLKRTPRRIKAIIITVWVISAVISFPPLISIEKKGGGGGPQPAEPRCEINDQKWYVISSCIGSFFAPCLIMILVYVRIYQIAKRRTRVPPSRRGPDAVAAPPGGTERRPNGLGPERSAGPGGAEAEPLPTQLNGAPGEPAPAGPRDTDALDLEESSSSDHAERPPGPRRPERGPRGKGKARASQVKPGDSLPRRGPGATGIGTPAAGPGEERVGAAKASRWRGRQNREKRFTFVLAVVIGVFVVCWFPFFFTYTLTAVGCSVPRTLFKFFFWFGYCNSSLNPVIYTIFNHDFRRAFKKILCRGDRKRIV
The data set can be described thus: Equilibrium competition binding, [3H]rauwolscine, cloned human α2a. To be noted: cloned human α2a, membrane preparations, [3H]rauwolscine; read-out: α2a pKi (converted). The procedure:
(§1) Binding and functional assays were performed using stably transfected cells expressing human α adrenergic receptors. Equilibrium competition binding assays were performed with membrane preparations from cultured LM(tk−) cells stably transfected with the cloned human adrenoceptor subtypes except for a21, which was expressed In Y-1 cells, using [^3H]prazosin for α1 receptors and [^3H]rauwolscine for […].
(§2) These cell lines were prepared by transfecting cloned cDNA or cloned genomic DNA or constructs containing both genomic DNA and cDNA encoding the human a adrenergic receptors as described below.
The insert housing this coding region was a 2.5 kb Kpnl/HindIII human placenta genomic fragment which was end-blunted by either T4 polymerase or Klenow fragment of DNA polymerase. Stable cell lines were obtained by to-transfection with the plasmid pGCcos3neo (plasmid containing the α2a receptor gene) and the plasmid pGCcos3neo (plasmid containing the aminoglycoside transferase gene) into LM(tk−), CHO, and NIH3T3 cells, using calcium phosphate technique. The cells were grown in a controlled environment (37° C., 5% CO2) as monolayers in Dulbecco's modified Eagle's Medium (GIBCO, Grand Island, N.Y.) containing 25 mM glucose and supplemented with 10% bovine calf serum, 100 units/mL penicillin g, and […] streptomycin sulfate.
(§3) The stable cell lines described above were scraped from culture flasks into 5 mL of 5 mM Tris-HCl, […], pH 7.5, and lysed by sonication. The cell lysates were centrifuged at 1,000 rpm for 5 min. at 4° C., and the supernatant was centrifuged at 30,000×g for 20 min. at 4° C. The pellet was suspended in 50 mM Tris-HCl, 1 mM MgCl2, and 0.1% ascorbic acid at pH 7.5. Binding of the α2 antagonist [^3H]rauwolscine (0.5 nM) or the α1 antagonist [^3H]prazosin (0.5 nM) to membrane preparations of LM(tk−) cells was done in a final volume of 0.25 mL and incubated at 37° C. for 20 min. Nonspecific binding was determined in the presence of […]. The reaction was stopped by filtration through GF/B filters using a cell harvester.

Data set [2] has as its target T2, human α2b adrenergic receptor (Homo sapiens, UniProt P18089).
T2 construct: expressed in transfected cells; host or cells: stably transfected cells, vector pcEXV-3; deposited line L-NGC-α2B (ATCC CRL-10275)
T2 sequence (P18089 1-450): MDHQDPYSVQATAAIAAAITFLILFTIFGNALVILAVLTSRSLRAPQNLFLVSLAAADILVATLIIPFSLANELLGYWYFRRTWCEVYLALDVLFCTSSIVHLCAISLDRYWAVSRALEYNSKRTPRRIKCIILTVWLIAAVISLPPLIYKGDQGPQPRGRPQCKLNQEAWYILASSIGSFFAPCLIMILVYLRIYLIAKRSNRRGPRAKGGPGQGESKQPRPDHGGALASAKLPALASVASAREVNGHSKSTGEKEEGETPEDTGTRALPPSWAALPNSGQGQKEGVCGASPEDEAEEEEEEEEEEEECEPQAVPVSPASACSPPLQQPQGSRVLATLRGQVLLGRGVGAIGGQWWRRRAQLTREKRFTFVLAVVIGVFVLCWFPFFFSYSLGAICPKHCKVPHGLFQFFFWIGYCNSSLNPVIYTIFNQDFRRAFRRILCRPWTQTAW
The data set can be described thus: Equilibrium competition binding, [3H]rauwolscine, cloned human α2b. The following applies: cloned human α2b, membrane preparations, [3H]rauwolscine; read-out: α2b pKi (converted). The procedure:
as §1, §2
Stable cell lines were selected as described above.
as §3

Data set [3] has as its target T3, human α2c adrenergic receptor (Homo sapiens, UniProt P18825).
T3 construct: The entire coding region of α2c (1383 bp), including 2 bp of 5′ UT and 400 bp of 3′ UT; expressed in transfected cells; host or cells: LM(tk−) cells (L-α2c, ATCC CRL-11181), vector pCEXV-3
T3 sequence (P18825 1-462): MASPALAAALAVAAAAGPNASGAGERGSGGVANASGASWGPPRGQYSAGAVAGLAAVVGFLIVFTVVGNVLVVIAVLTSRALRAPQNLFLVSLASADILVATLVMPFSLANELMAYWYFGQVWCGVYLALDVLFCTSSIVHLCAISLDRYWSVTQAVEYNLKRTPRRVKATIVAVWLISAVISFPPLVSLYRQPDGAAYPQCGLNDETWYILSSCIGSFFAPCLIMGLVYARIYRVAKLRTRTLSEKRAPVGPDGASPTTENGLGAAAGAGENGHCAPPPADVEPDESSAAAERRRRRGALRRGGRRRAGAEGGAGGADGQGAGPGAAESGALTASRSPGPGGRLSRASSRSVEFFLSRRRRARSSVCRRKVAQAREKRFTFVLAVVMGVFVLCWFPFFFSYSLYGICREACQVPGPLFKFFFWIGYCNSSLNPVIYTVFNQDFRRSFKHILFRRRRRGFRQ
The data set can be described thus: Equilibrium competition binding, [3H]rauwolscine, cloned human α2c. To be noted: cloned human α2c, membrane preparations, [3H]rauwolscine; read-out: α2c pKi (converted). The procedure:
as §1, §2
The insert housing this coding region was a 1.8 kb Ncol/EcoR1 human spleen genomic fragment which was end-blunted by either T4 polymerase or Klenow fragment of DNA polymerase. Stable cell lines were selected as described above.
as §3

For data set [4], the target named is T1, human α2a adrenergic receptor. Description: α2 agonist activity: inhibition of forskolin-stimulated cAMP synthesis, α2a cells. The class given is cell-based. The procedure:
as §1, §2
(§4) The agonist activity (expressed as pEC50) was measured as a function of the ability to inhibit the forskolin-stimulated synthesis of cyclic adenosine monophosphate (cAMP). The stably transfected cells were incubated in Ham's F10 with 5 mM theophylline, 10 mM HEPES, 17 mM pargyline, and/or appropriate concentrations of forskolin for 20 min. at 37° C. in 5% CO2. The tested compounds were then added to a final concentration of 0.001 nM to 1 mM and incubated for an additional 15 min. at 37° C. in 5% CO2. The medium was aspirated and the reaction was stopped by the addition of 100 mM HCl. […] The plates were stored at 4° C. for 15 min. and assayed to determine the linear concentration of cAMP. The appropriate dilution was interpolated from the standard curve of cold cAMP. The assessment of cAMP formation was determined by radioimmunoassay (cAMP radioimmunoassay kit; Advanced magnetics, Cambridge, Mass.). Radioactivity was quantified using a Packard COBRA Auto Gamma counter equipped with data reduction software.

In data set [5] the target is T2, human α2b adrenergic receptor. The data set can be described thus: α2 agonist activity: inhibition of forskolin-stimulated cAMP synthesis, α2b cells. The class given is cell-based. The following applies: inhibition of forskolin-stimulated cAMP, cloned human α2b; for EC50: read-out: α2b pEC50 (converted). The procedure:
as §1, §2, §4

Data set [6] deals with T3, human α2c adrenergic receptor. Description: α2 agonist activity: inhibition of forskolin-stimulated cAMP synthesis, α2c cells. The class given is cell-based. To be noted: inhibition of forskolin-stimulated cAMP, cloned human α2c; for EC50: read-out: α2c pEC50 (converted). The procedure: as §1, §2, §4
Setting [7] is: inhibition of forskolin-stimulated cAMP, cloned human α2a.

As to `CON=C1CCCc2ccc(NC3=NCCN3)cc21` (as salt: fumarate) [Example 8, 2-(1,2,3,4-Tetrahydro-1-methoxyimino-naphth-7-yl)amino-2-imidazoline], the melting point (in general, the temperature of the solid-liquid transition) was 201 to 202 °C (dec.).

On to `CC(c1c[nH]cn1)c1cc(-c2ccccc2)nc2ccccc12` (centres unmarked) [Example 36, 4-[1-(1H-Imidazol-4-yl)-ethyl]-2-phenyl-quinoline dihydrochloride], for which the figures for the Ki in data set [1], in data set [2] and in data set [3] were 0.00269 µM, 0.0407 µM and 0.0162 µM, respectively. For the same compound, the EC50 was 10 µM in data set [4] (inhibition of forskolin-stimulated cAMP, cloned human α2a, read-out: α2a pEC50 (converted)); 2.82 µM in data set [5]; 0.00724 µM in data set [6].

In turn, `Brc1cc2c(c(Br)c1NC1=NCCN1)CCC2` yielded a melting point of 163 to 164 °C.

Regarding `CC1(C)CCCc2cc(NC3=NCCN3)cnc21` (as salt: fumarate), the melting point was 185 to 186 °C (dec.).

Take `CC1CCCc2ccc(NC3=NCCN3)cc21` (centres unmarked) (as salt: fumarate): the melting point was 185 to 187 °C (dec.).

Turning to `Brc1nc2c(c(Br)c1NC1=NCCN1)CCC2` [Example 29, 2-(2,4-Dibromo-5,6-cyclopentenopyrid-3-yl)amino-2-imidazoline], the results for the Ki in data set [1], in data set [2] and in data set [3] were 0.0148 µM, 0.0513 µM and 0.251 µM, respectively. Further, the EC50 in data set [4] is 0.0158 µM; in data set [5], 0.0912 µM; in data set [6] it was 0.0138 µM. Moreover, the “α2a IA (Intrinsic Activity)” value in data set [4] (setting [7]) is reported as “(1.00)”. The “α2b IA (Intrinsic Activity)” value in data set [5] is listed as “(0.40)”. Besides, the “α2c IA (Intrinsic Activity)” value in data set [6] was “(1.00)”.

The compound `Br.Brc1cc2c(cc1NC1=NCCN1)CCC2` gave a melting point of 220 to 221 °C.

`c1nc2c(cc1NC1=NCCN1)CCCC2` (as salt: fumarate) displayed a melting point of 201 to 203 °C.

Consider `Brc1c(NC2=NCCN2)ccc2nccnc12` [UK-14, 304, reference compound], for which the “α2c IA (Intrinsic Activity)” value in data set [6] was “(1.00)”.

Consider `O=[N+]([O-])c1cc2c(cc1NC1=NCCN1)CCC2` (as salt: fumarate), for which the melting point is 213 to 214 °C (dec.).

With `OC1CCCc2ccc(NC3=NCCN3)cc21` (centres unmarked) (as salt: fumarate), the melting point was 180 to 182 °C (dec.).

The compound `c1nc2c(cc1NC1=NCCN1)CCC2` (as salt: fumarate) [Example 21, 2-(2,3-Cyclopentenopyrid-5-yl)amino-2-imidazoline] displayed a melting point of 182 to 183.5 °C.

Take `Cc1cccc(C(C)c2cnc[nH]2)c1C` (centres unmarked) [Medetomidine, reference compound]: the Ki in data set [3] was 0.00537 µM. Further, the “α2a IA (Intrinsic Activity)” value in data set [4] (setting [7]) is “(1.00)”. In addition, in data set [6], the “α2c IA (Intrinsic Activity)” value is on record as “(1.00)” and the EC50 was 0.00148 µM.

On to `C1=NC(Cc2ccnc3ccccc23)CN1.O=C(O)/C=C/C(=O)O` (centres unmarked), for which the melting point lay within 180 to 182 °C.

As for `O=C1CCCc2ccc(NC3=NCCN3)c(Br)c21` (as salt: fumarate) [Example 5, 2-(8-Bromo-1,2,3,4-Tetrahydro-1-oxo-naphth-7-yl)amino-2-imidazoline], the melting point was 204 to 207 °C (dec.).

Take `O=C1CCCc2ccc(NC3=NCCN3)cc21` (as salt: fumarate) [Example 4, 2-(1,2,3,4-Tetrahydro-1-oxo-naphth-7-yl)amino-2-imidazoline]: the melting point was 198 to 201 °C (dec.).

As to `c1nc2c(cc1NC1=NCCN1)COCC2` (as salt: fumarate), the melting point fell in the range of 201 to 202.5 °C.

As for `Cc1nc2c(c(C)c1NC1=NCCN1)CCC2` (as salt: fumarate) [Example 30, 2-(5,6-Cyclopenteno-2,4-dimethyl-pyrid-3-yl)amino-2-imidazoline], the melting point is 220 to 221 °C.

In the case of `CC1CCc2ncc(NC3=NCCN3)cc2C1` (centres unmarked) (as salt: fumarate), the melting point is 192 to 195 °C (dec.).

Regarding `c1nc2c(cc1NC1=NCCN1)CSCC2` (as salt: fumarate) [Example 25, 2-(5,6,7,8-tetrahydro-6-thia-quinolin-3-yl)amino-2-imidazoline], the melting point is 199.5 to 200.5 °C.

Turning to `CC(=O)N1CCc2cc(NC3=NCCN3)ccc21` (as salt: fumarate) [Example 9, 2-(1-Acetyl-indolin-5-yl)amino-2-imidazoline], the melting point was 200 to 203 °C (dec.).

Regarding `CC1CCCc2cc(NC3=NCCN3)cnc21` (centres unmarked) (as salt: fumarate), the melting point was 155 to 160 °C (dec.).
